From publication PMC3337729 (Anesthesiology, 2011)

Key:
[1] = biological target: T1, Complex I (NADH-ubiquinone oxidoreductase) (Rattus norvegicus, UniProt A6K8N6+P03889+Q5XIH3+Q641Y2); assay: rotenone-sensitive NADH oxidation, absorbance at […] nm; assay type: biochemical; settings: 0.2 mM NADH, antimycin A present
[2] = biological target: T1, Complex I (NADH-ubiquinone oxidoreductase); assay: as above; assay type: biochemical; settings: read-out: % of control activity at 0.5 mM

NC(=O)C1=CN([C@@H]2O[C@H](COP(=O)(O)OP(=O)(O)OC[C@H]3O[C@@H](n4cnc5c(N)ncnc54)[C@H](O)[C@@H]3O)[C@@H](O)[C@H]2O)C=CC1 [NADH]
rotenone-sensitive NADH oxidation, absorbance at 340 nm ([1]; decylubiquinone acceptor): Complex I activity was determined by the rotenone-sensitive reduction of NADH absorbance using decylubiquinone

CCCCCCCCCCC1=C(C)C(=O)C(OC)=C(OC)C1=O [decylubiquinone]
rotenone-sensitive NADH oxidation, absorbance at 340 nm ([1]; decylubiquinone printed as 75 mM): rotenone-sensitive reduction of NADH absorbance using decylubiquinone as acceptor

FC(F)OC(Cl)C(F)(F)F (stereo not drawn) [isoflurane]
remaining activity at 500 µM [2]: 86 ± 5%
